# Test system: thrombocyte aggregation
# Assay: Inhibition of collagen-triggered thrombocyte aggregation in platelet-rich citrated plasma (turbidometry, aggregometer)
# Type: cell-based
# Settings: Homo sapiens, 0.1 h, 37° C., response after 6 minutes, read-out: EC (limiting concentration, range of the minimum effective concentration)
# Procedure: To determine the action as an inhibitor of thrombocyte aggregation, blood was used from healthy subjects of both sexes. 9 parts of blood were treated with one part of 3.8% strength aqueous sodium citrate solution as an anticoagulant. From this blood, platelet-rich citrated plasma (PRP)^1 is obtained (Jurgens/Beller, Klinische Methoden der Blutgerinnungsanalyse [Clinical Methods in Blood Coagulation Analysis]; Thieme Verlag, Stuttgart, 1959).
# For these assays, 0.8 ml of (PRP)^1 and 0.1 ml of the active compound solution were preincubated at 37° C. in a water bath. The thrombocyte aggregation was then determined in an aggregometer at 37° C. (Therapeutische Berichte 47, 80-86, 1975) by means of turbidometry (Born, G.V.R., J. Physiol. (London), 162, 67, 1962). For this purpose, the preincubated sample was treated with 0.1 ml of collagen, an agent which triggers aggregations. The (PRP)^1 sample underwent changes in optical density, which was recorded during a period of 6 minutes, and the response was determined after 6 minutes. From this, the inhibition compared with the control is calculated as a percentage. The limiting concentration given is the range of the minimum effective concentration.
row,SMILES,minimal effective concentration [µg/mL]
1,NC(=O)CCn1c2c(c3cc(F)ccc31)CC(NS(=O)(=O)c1ccc(Cl)cc1)CC2 (stereo not drawn) [Example 15],0.01 to 0.03
2,CCOC(=O)CCn1c2c(c3cc(F)ccc31)CC(NS(=O)(=O)c1ccc(Cl)cc1)CC2 (stereo not drawn) [Example 8],0.3 to 1
3,O=C(O)CCn1c2c(c3cc(F)cc(F)c31)CC(NS(=O)(=O)c1ccc(Cl)cc1)CC2 (stereo not drawn) [Example 4],0.01 to 0.03

# From patent US5039670A, “Antithrombotic substituted cycloalkano(B)dihydroindole- and -indole-sulphonamides and use” (Bayer Aktiengesellschaft, priority 1989, dated 1991)
